Results from US9149038B2, “4-amino-6-(heterocyclic)picolinates and 6-amino-2-(heterocyclic)pyrimidine-4-carboxylates and their use as herbicides” (Dow AgroSciences LLC, priority 2013, dated 2015).
Where two headings read alike, the source gives them in different places.

How the values were obtained:
[1] = system: Key Broadleaf Weed and Crop Species; test: Post-Emergent Test II: postemergent herbicidal activity, visual rating after 14 d (Table 7); type: in vivo; conditions: post-emergence, 336 h; for pest or weed control at 35 g/ha: 35 g ai/ha; for pest or weed control at 70 g/ha: 70 g ai/ha; for pest or weed control at 140 g/ha: 140 g ai/ha
How it was run: (§1)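 Greenhouse-grown plants at the first or second true leaf stage (7-21 d, ~15 h photoperiod, 23-29° C day) were sprayed with compound in acetone/DMSO-based aqueous spray containing crop oil concentrate and Triton X-155 at 187 L/ha. Injury versus untreated plants was rated visually after 14 d on a 0-100 scale.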

[2] = system: Key Grass and Sedge Weeds as well as Grass Crops; test: Post-Emergent Test II: postemergent herbicidal activity, visual rating after 14 d (Table 8); type: in vivo; conditions: post-emergence, 336 h; for pest or weed control at 35 g/ha: 35 g ai/ha; for pest or weed control at 70 g/ha: 70 g ai/ha; for pest or weed control at 140 g/ha: 140 g ai/ha
How it was run: as §1

[3] = lambsquarters (Chenopodium album), read-out: Visual Growth Reduction (%) 14 Days After Application CHEAL
[4] = oilseed rape, canola (Brassica napus), read-out: Visual Growth Reduction (%) 14 Days After Application BRSNN
[5] = redroot pigweed (Amaranthus retroflexus), read-out: Visual Growth Reduction (%) 14 Days After Application AMARE
[6] = sunflower (Helianthus annuus), read-out: Visual Growth Reduction (%) 14 Days After Application HELAN
[7] = velvetleaf (Abutilon theophrasti), read-out: Visual Growth Reduction (%) 14 Days After Application ABUTH
[8] = wild poinsettia (Euphorbia heterophylla), read-out: Visual Growth Reduction (%) 14 Days After Application EPHHL
[9] = barnyardgrass (Echinochloa crus-galli), read-out: Visual Growth Reduction (%) 14 Days After Application ECHCG
[10] = giant foxtail (Setaria faberi), read-out: Visual Growth Reduction (%) 14 Days After Application SETFA
[11] = maize, corn (Zea mays), read-out: Visual Growth Reduction (%) 14 Days After Application ZEAMX
[12] = rice (Oryza sativa), read-out: Visual Growth Reduction (%) 14 Days After Application ORYSA
[13] = wheat, spring (Triticum aestivum), read-out: Visual Growth Reduction (%) 14 Days After Application TRZAS
[14] = yellow nutsedge (Cyperus esculentus), read-out: Visual Growth Reduction (%) 14 Days After Application CYPES

Structure (SMILES) | pest or weed control at 35 g/ha [1, 3] | pest or weed control at 70 g/ha [1, 3] | pest or weed control at 140 g/ha [1, 3] | pest or weed control at 35 g/ha [1, 4] | pest or weed control at 70 g/ha [1, 4] | pest or weed control at 140 g/ha [1, 4] | pest or weed control at 35 g/ha [1, 5] | pest or weed control at 70 g/ha [1, 5] | pest or weed control at 140 g/ha [1, 5] | pest or weed control at 35 g/ha [1, 6] | pest or weed control at 70 g/ha [1, 6] | pest or weed control at 140 g/ha [1, 6] | pest or weed control at 35 g/ha [1, 7] | pest or weed control at 70 g/ha [1, 7] | pest or weed control at 140 g/ha [1, 7] | pest or weed control at 35 g/ha [1, 8] | pest or weed control at 70 g/ha [1, 8] | pest or weed control at 140 g/ha [1, 8] | pest or weed control at 35 g/ha [2, 9] | pest or weed control at 70 g/ha [2, 9] | other results
Nc1nc(-c2cc3c(cc2F)OC(F)(F)O3)nc(C(=O)O)c1Cl [Compound 57] | 0 to 29% | 0 to 29% | 0 to 29% | 0 to 29% | 0 to 29% | 0 to 29% | 0 to 29% | 0 to 29% | 85 to 94% | 45 to 59% | 85 to 94% | 95 to 100% | 0 to 29% | 0 to 29% | 0 to 29% | 0 to 29% | 60 to 74% | 95 to 100% | 85 to 94% | 95 to 100% | pest or weed control at 140 g/ha [2, 9]: 95 to 100%; pest or weed control at 35 g/ha [2, 10]: 45 to 59%; pest or weed control at 70 g/ha [2, 10]: 0 to 29%; pest or weed control at 140 g/ha [2, 10]: 45 to 59%; pest or weed control at 35 g/ha [2, 11]: 0 to 29%; pest or weed control at 70 g/ha [2, 11]: 30 to 44%; pest or weed control at 140 g/ha [2, 11]: 45 to 59%; pest or weed control at 35 g/ha [2, 12]: 0 to 29%; pest or weed control at 70 g/ha [2, 12]: 0 to 29%; pest or weed control at 140 g/ha [2, 12]: 0 to 29%; pest or weed control at 35 g/ha [2, 13]: 0 to 29%; pest or weed control at 70 g/ha [2, 13]: 0 to 29%; pest or weed control at 140 g/ha [2, 13]: 30 to 44%; pest or weed control at 35 g/ha [2, 14]: 0 to 29%; pest or weed control at 70 g/ha [2, 14]: 0 to 29%; pest or weed control at 140 g/ha [2, 14]: 0 to 29%
COC(=O)c1nc(-c2cc3c(cc2F)OCO3)c(F)c(N)c1Cl [Compound 16] | 45 to 59% | 60 to 74% | 60 to 74% | 30 to 44% | 60 to 74% | 85 to 94% | 85 to 94% | 85 to 94% | 95 to 100% | 85 to 94% | 95 to 100% | 95 to 100% | 60 to 74% | 60 to 74% | 75 to 84% | 95 to 100% | 95 to 100% | 95 to 100% | 60 to 74% | 60 to 74% | pest or weed control at 140 g/ha [2, 9]: 75 to 84%; pest or weed control at 35 g/ha [2, 10]: 60 to 74%; pest or weed control at 70 g/ha [2, 10]: 60 to 74%; pest or weed control at 140 g/ha [2, 10]: 60 to 74%; pest or weed control at 35 g/ha [2, 11]: 30 to 44%; pest or weed control at 70 g/ha [2, 11]: 45 to 59%; pest or weed control at 140 g/ha [2, 11]: 75 to 84%; pest or weed control at 35 g/ha [2, 12]: 0 to 29%; pest or weed control at 70 g/ha [2, 12]: 0 to 29%; pest or weed control at 140 g/ha [2, 12]: 0 to 29%; pest or weed control at 35 g/ha [2, 13]: 0 to 29%; pest or weed control at 70 g/ha [2, 13]: 30 to 44%; pest or weed control at 140 g/ha [2, 13]: 45 to 59%; pest or weed control at 35 g/ha [2, 14]: 0 to 29%; pest or weed control at 70 g/ha [2, 14]: 45 to 59%; pest or weed control at 140 g/ha [2, 14]: 45 to 59%
